Key:
NSA mice = experiment: Hypothermia study (block of CP 55,940-induced hypothermia); format: in vivo; design: Hypothermia 3 mg/kg / Hypothermia 0.3 mg/kg: unit not given here; settings: for Hypothermia ID50: block of CP 55,940-induced hypothermia
Protocol: . […] Core body temperatures were then obtained at various time points following CP 55,940 administration. Core body temperature (to the nearest 0.1° C.) was obtained by rectal probe.

native CB1 receptors = native CB1 receptors (Rattus norvegicus, UniProt P20272); experiment: CB1 receptor rat binding assay ([3H]SR141716A, rat brain membranes); settings: rat brain membranes, [3H]SR141716A; for Ki: read-out: Binding rat pKi (converted)
Sequence of native CB1 receptors (P20272 whole entry): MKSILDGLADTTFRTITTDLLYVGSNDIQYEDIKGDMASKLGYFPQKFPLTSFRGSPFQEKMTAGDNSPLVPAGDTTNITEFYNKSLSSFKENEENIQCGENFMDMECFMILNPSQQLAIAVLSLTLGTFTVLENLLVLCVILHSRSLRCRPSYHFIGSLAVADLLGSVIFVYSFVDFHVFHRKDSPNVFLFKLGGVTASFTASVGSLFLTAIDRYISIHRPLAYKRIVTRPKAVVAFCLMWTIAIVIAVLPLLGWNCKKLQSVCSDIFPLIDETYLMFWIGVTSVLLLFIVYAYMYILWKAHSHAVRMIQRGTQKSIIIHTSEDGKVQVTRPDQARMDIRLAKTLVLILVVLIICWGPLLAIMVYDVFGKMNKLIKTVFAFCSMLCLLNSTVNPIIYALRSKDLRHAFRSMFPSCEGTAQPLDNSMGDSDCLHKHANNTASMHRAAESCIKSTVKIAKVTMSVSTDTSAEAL

SMILES	Hypothermia 3 mg/kg (NSA mice)	Hypothermia 0.3 mg/kg (NSA mice)	further results
CCCCNC(=O)c1ccc2c(c1)N=C(c1ccc(F)c(Cl)c1)c1ccccc1S2	94		
CCCCNC(=O)C1=C/C=C/Sc2cc(F)ccc2/C(c2ccc(Cl)cn2)=N\C=C\1	4		
Cc1ccc(N2CCN(C(=O)c3ccc4c(c3)N=C(c3ccc(Cl)cc3)c3ccccc3S4)CC2)c(C)c1 [drawing 1546]			Ki (native CB1 receptors): 100 nM
O=C(NC1CCCC1)c1ccc2c(c1)N=C(c1cccc(Cl)c1)c1ccccc1S2 [drawing 1547]			Binding rat Inh % (native CB1 receptors): 84%; Ki (native CB1 receptors): 12.6 nM
CCOC(=O)N1CCC(NC(=O)c2ccc3c(c2)N=C(c2ccc(Cl)cc2)c2ccccc2S3)CC1 [drawing 1548]			Ki (native CB1 receptors): 12.6 nM
CCCC1=Nc2cc(C(=O)NCCc3cc(OC)ccc3OC)ccc2Sc2ccccc21 [drawing 1549]			Ki (native CB1 receptors): 100 nM
COc1ccc(C2=Nc3cc(C(=O)NC(C)C)ccc3Sc3ccccc32)cc1 [drawing 1550]			Binding rat Inh % (native CB1 receptors): 79%; Ki (native CB1 receptors): 100 nM
O=C(NCc1ccc(Cl)cc1Cl)c1ccc2c(c1)N=C(c1ccccc1F)c1ccccc1S2 [drawing 1551]			Ki (native CB1 receptors): 100 nM
O=C(NCCCC(F)(F)F)c1ccc2c(c1)N=C(c1ccc(Cl)cc1F)c1ccccc1S2 [drawing 1552]	55	24	Hypothermia ID50 (NSA mice): 1.3 mg/kg
O=C(NCc1ccco1)c1ccc2c(c1)N=C(c1ccc(F)cc1)c1ccccc1S2 [drawing 1553]	90	−11	Hypothermia ID50 (NSA mice): 1.2 mg/kg
O=C(NCCCC(F)(F)F)c1ccc2c(c1)N=C(c1ccc(Cl)s1)c1ccccc1S2 [drawing 1554]	73	11	Hypothermia ID50 (NSA mice): 1.7 mg/kg
CCCCNC(=O)c1ccc2c(c1)N=C(c1ccc(Br)cn1)c1ccccc1S2 [drawing 1555]	80		
CC(C)CNC(=O)c1ccc2c(c1)N=C(c1ccc(Cl)cc1)c1ccc(F)cc1S2 [drawing 1556]	41		
O=C(NCc1ccco1)c1ccc2c(c1)N=C(c1ccc(Cl)s1)c1ccccc1S2 [drawing 1557]	66		
O=C(NCc1cccs1)c1ccc2c(c1)N=C(c1ccc(F)cc1)c1ccccc1S2 [drawing 1558]	90	19	Hypothermia ID50 (NSA mice): 1 mg/kg
O=C(NCc1cccs1)c1ccc2c(c1)N=C(c1cccc(F)c1)c1ccccc1S2 [drawing 1559]	17		
CCCCNC(=O)c1ccc2c(c1)N=C(c1ccc(Cl)cc1)c1ccccc1S2 [drawing 1560]	82	15	Hypothermia ID50 (NSA mice): 0.79 mg/kg
O=C(NN1CCCCC1)c1ccc2c(c1)N=C(c1ccc(Cl)s1)c1ccccc1S2 [drawing 1561]	42		
CCCCNC(=O)c1ccc2c(c1)N=C(c1ccc(Cl)cc1)c1ccc(F)cc1S2 [drawing 1562]	53	11	
O=C(NN1CCCCCC1)c1ccc2c(c1)N=C(c1ccc(Cl)cc1F)c1ccccc1S2 [drawing 1563]	54	2	
CC(C)CCNC(=O)c1ccc2c(c1)N=C(c1cccc(Cl)c1)c1ccccc1S2 [drawing 1564]	64	35	
O=C(NCc1cccnc1)c1ccc2c(c1)N=C(c1ccc(Cl)c(Cl)c1)c1ccccc1S2 [drawing 1565]	19	1	

SMILES	Hypothermia 3 mg/kg (NSA mice)	Hypothermia 0.3 mg/kg (NSA mice)	further results
COc1cccc(C2=Nc3cc(C(=O)NCCCC(F)(F)F)ccc3Sc3ccccc32)n1 [drawing 1566]	46		
O=C(NCc1ccco1)c1ccc2c(c1)N=C(c1ccc(Cl)c(Cl)c1)c1ccccc1S2 [drawing 1567]	54		
CCCCNC(=O)c1ccc2c(c1)N=C(c1ccc(Cl)s1)c1ccccc1S2 [drawing 1568]	53	12	Hypothermia ID50 (NSA mice): 2.3 mg/kg
O=C(NCCc1cccnc1)c1ccc2c(c1)N=C(c1ccc(Cl)c(Cl)c1)c1ccccc1S2 [drawing 1569]	41		
CC(C)CNC(=O)c1ccc2c(c1)N=C(c1ccc(Cl)c(Cl)c1)c1ccccc1S2 [drawing 1570]	40		
O=C(NCc1cccc(Cl)c1)c1ccc2c(c1)N=C(c1ccc(F)cc1)c1ccccc1S2(=O)=O [drawing 1571]	45		
COc1cccc(C2=Nc3cc(C(=O)NC4CCC(F)(F)CC4)ccc3Sc3ccccc32)n1 [drawing 1572]	19		
O=C(NCc1ccccc1Cl)c1ccc2c(c1)N=C(c1cccc(Cl)c1)c1ccccc1S2 [drawing 1573]	−2		
O=C(NC1CCCCC1)c1ccc2c(c1)N=C(c1cccc(Cl)c1)c1ccccc1S2 [drawing 1574]	74		
O=C(NN1CCCCC1)c1ccc2c(c1)N=C(c1ccc(Cl)cc1)c1ccccc1S2 [drawing 1575]	69	−18	
CC(C)CNC(=O)c1ccc2c(c1)N=C(c1ccc(Cl)cc1F)c1ccccc1S2 [drawing 1576]	71	0	
CCCCNC(=O)c1ccc2c(c1)N=C(c1ccc(Cl)s1)c1cc(Cl)ccc1S2 [drawing 1577]	−9		
CC(C)CNC(=O)c1ccc2c(c1)N=C(c1ccc(Cl)s1)c1ccccc1S2 [drawing 1578]	73	23	
CCCCNC(=O)c1ccc2c(c1)N=C(c1cccc(Cl)c1)c1cc(F)ccc1S2 [drawing 1579]	8		
O=C(NC1CCCCC1)c1ccc2c(c1)N=C(c1ccc(F)cc1)c1ccccc1S2 [drawing 1580]	82	28	
O=C(NCc1ccco1)c1ccc2c(c1)N=C(c1cccc(Cl)c1)c1ccccc1S2 [drawing 1581]	67	24	Hypothermia ID50 (NSA mice): 1 mg/kg
O=C(NN1CCCCC1)c1ccc2c(c1)N=C(c1ccc(F)cc1)c1ccccc1S2 [drawing 1582]	87	7	Hypothermia ID50 (NSA mice): 0.96 mg/kg
O=C(NCc1cccc(Cl)c1)c1ccc2c(c1)N=C(c1ccc(Cl)cc1)c1cc(F)ccc1S2 [drawing 1583]	−4	14	
O=C(NN1CCCCCC1)c1ccc2c(c1)N=C(c1ccc(Cl)s1)c1ccccc1S2 [drawing 1584]	83	33	Hypothermia ID50 (NSA mice): 0.59 mg/kg
O=C(NCCc1cccnc1)c1ccc2c(c1)N=C(c1ccc(Cl)s1)c1ccccc1S2 [drawing 1585]	76	−14	Hypothermia ID50 (NSA mice): 1.7 mg/kg
O=C(NN1CCCCCC1)c1ccc2c(c1)N=C(c1cccc(Cl)c1)c1ccccc1S2 [drawing 1586]	86	−27	Hypothermia ID50 (NSA mice): 1.14 mg/kg
CCCNC(=O)c1ccc2c(c1)N=C(c1ccc(Cl)cc1)c1ccccc1S2 [drawing 1588]	54	29	

SMILES	Hypothermia 3 mg/kg (NSA mice)	Hypothermia 0.3 mg/kg (NSA mice)	further results
CCCCNC(=O)c1ccc2c(c1)N=C(c1ccc(Cl)s1)c1ccc(Cl)cc1S2 [drawing 1589]	1		
O=C(NN1CCCCCC1)c1ccc2c(c1)N=C(c1cccc(F)c1)c1ccccc1S2 [drawing 1590]	85	21	Hypothermia ID50 (NSA mice): 0.93 mg/kg
O=C(NCCc1ccncc1)c1ccc2c(c1)N=C(c1ccc(Cl)c(Cl)c1)c1ccccc1S2 [drawing 1591]	41		
O=C(NN1CCCCC1)c1ccc2c(c1)N=C(C1CCCCC1)c1ccccc1S2 [drawing 1592]	69		
CCCCNC(=O)c1ccc2c(c1)N=C(c1cccc(F)c1)c1ccccc1S2 [drawing 1593]	36		
Cc1ccc(CNC(=O)c2ccc3c(c2)N=C(c2ccc(Cl)s2)c2ccccc2S3)o1 [drawing 1594]	16		
CCCCNC(=O)c1ccc2c(c1)N=C(c1ccc(Cl)cn1)c1ccccc1S2 [drawing 1595]	53		
O=C(NC1CCC(F)(F)CC1)c1ccc2c(c1)N=C(c1ccc(Cl)s1)c1ccccc1S2 [drawing 1596]	51		
Cc1ccsc1C1=Nc2cc(C(=O)NN3CCCCCC3)ccc2Sc2ccccc21 [drawing 1597]	18		
Cc1ccsc1C1=Nc2cc(C(=O)NCCCC(F)(F)F)ccc2Sc2ccccc21 [drawing 1598]	24		
COc1ccc(C2=Nc3cc(C(=O)NCC(C)C)ccc3Sc3ccccc32)cc1 [drawing 1599]	71		
O=C(NCCCC(F)(F)F)c1ccc2c(c1)N=C(c1ccsc1)c1ccccc1S2 [drawing 1600]		32	
CCCCNC(=O)c1ccc2c(c1)N=C(c1ccc(Cl)s1)c1cc(F)ccc1S2 [drawing 1601]	17		
CC(C)CCNC(=O)c1ccc2c(c1)N=C(c1cccc(F)c1)c1ccccc1S2 [drawing 1602]	67	0	
O=C(NC1CCCCC1)c1ccc2c(c1)N=C(c1ccc(Cl)cc1)c1ccccc1S2 [drawing 1603]	60		
O=C(NC1CCC(F)(F)CC1)c1ccc2c(c1)N=C(c1cccc(Cl)c1)c1ccccc1S2 [drawing 1604]		5	
C[C@@H]1CCC[C@H](C)N1NC(=O)c1ccc2c(c1)N=C(c1cccc(Cl)c1)c1ccccc1S2 [drawing 1605]	−2		
O=C(NCCCC(F)(F)F)c1ccc2c(c1)N=C(c1cccc(F)c1)c1ccccc1S2 [drawing 1606]		11	
CCCCNC(=O)c1cnc2c(n1)N=C(c1ccccc1)c1ccccc1S2 [drawing 1607]	7		
O=C(NC1CCC(F)(F)CC1)c1ccc2c(c1)N=C(c1cccc(F)c1)c1ccccc1S2 [drawing 1608]	46		
O=C(NCCc1ccncc1)c1ccc2c(c1)N=C(c1ccc(Cl)s1)c1ccccc1S2 [drawing 1609]	67		

Source: patent US20080090805A1, “CB-1 MODULATING COMPOUNDS AND THEIR USE” (ACADIA PHARMACEUTICALS INC., priority 2005, published 2008)
